Measurements as given in patent US4935440A, “3-[ω-(3,5-Di-t-butyl-4-hydroxyphenyl)alkyl]pyrroles, and anti-inflammatory uses thereof” (Syntex (U.S.A.) Inc., priority 1989, dated 1990).
“And” between values parts separate entries of the source, which are not always exact repeats. Equal values may be shown once.

What was measured:
Female Hla:(SD) BR rats = assay: Adjuvant-Induced Arthritis Assay "AI"; type: in vivo, rat; conditions: oral, day 18, vs control animals
Experimental: Anti-inflammatory activity is determined by the Adjuvant-Induced Arthritis ("AI") Assay, as is well accepted in the art. A modification of the assay described by Pearson, et al., supra., is performed as follows:
Female Hla:(SD) BR rats weighting 160-180 g are randomly distributed to treatment groups of 12 animals, and given food and water ad libitum. Test materials are prepared fresh weekly as suspensions in carboxymethyl cellulose. The test animals are orally dosed with the suspensions in volumes of 1 ml twice per day Monday through Friday, and with 2 ml once per day on Saturdays and Sundays. […] At time 0, rats are injected intradermally in the proximal quarter of the tail with 0.1 ml of a mineral oil suspension of heat-killed Mycobacterium butyricum (Difco) at a concentration of 10 mg/ml. On day 18 the intensity of swelling in the four paws and tail is estimated visually and scored (0-4 for paws, 0-3 for tail) such that the total maximum score, indicating intense swelling of all four paws and tail, is 19. The animals are then sacrificed; the hind paws of each animal are removed and weighed. The percent inhibition is calculated by comparing the weight increase of the hind paws of the test animals versus the control animals.
The "AI" assay, as described in Example 29, was performed using 3-(3,5-di-t-butyl-4-hydroxybenzoyl)pyrrole (prepared according to Example 2) as the test material.

mice = assay: Arachidonic Acid-Induced Mouse Ear Edema Assay "AAI"; type: in vivo; conditions: topical in acetone
Experimental: Topical anti-inflammatory activity is determined by the Arachidonic Acid-Induced Mouse Ear Edema "AAI" Assay, as is well accepted in the art. A modification of the assay described by Young, et al., supra., is performed as follows:
The test materials are prepared as solutions in acetone and applied to the right ears of mice, in groups of eight (8), at hour 0. At hour 1, 2 mg of arachidonic acid in acetone solution is applied to the right ears of the mice to induce an inflammatory response. The left ears of these animals serves as negative controls. At hour 2 the mice are sacrificed; their ears are removed and 8 mm diameter full thickness plugs are cut from the tip of each ear. The plugs are weighed and the mean right and left plug weights are calculated for each group. The results are expressed as percent inhibition of ear plug weight increase relative to a positive control group receiving only acetone at hour 0.

[1] = as reported by Isomura, et al., Chem. Pharm. Bull., 32(1): 152-165 (1984); cited from earlier work

SMILES	inhibition of hind paw weight increase (Female Hla:(SD) BR rats; daily dose 0.4 mg/kg of body weight) [%]	inhibition of hind paw weight increase (Female Hla:(SD) BR rats; daily dose 2.0 mg/kg of body weight) [%]	Inhibition (AAI) of ear plug weight increase (mice; dose 0.5 mg/ear) [%]	Inhibition (AAI) of ear plug weight increase (mice; dose 1.0 mg/ear) [%]	Inhibition (AAI) of ear plug weight increase (mice; dose 2.0 mg/ear)	anti-inflammatory activity [1]
CC(C)(C)c1cc(C(=O)c2cc[nH]c2)cc(C(C)(C)C)c1O [A, 3-(3,5-di-t-butyl-4-hydroxybenzoyl)pyrrole]	54	70	49	62	67% and 69%	–
Cc1[nH]ccc1-c1cc(C(C)(C)C)c(O)c(C(C)(C)C)c1 [Formula VIII]	–	–	–	–	–	inactive
CC(C)(C)c1cc(C(=O)c2ccc[nH]2)cc(C(C)(C)C)c1O [B, 2-(3,5-di-t-butyl-4-hydroxybenzoyl)pyrrole, reference compound]	–	–	–	–	22%	–
